We go through one sequence from publication PMC9376946, “Peptide-RNA Coacervates as a Cradle for the Evolution of Folded Domains” (Journal of the American Chemical Society, 2022).

The conditions of series [1]: earlier study, trifluoroethanol titration followed by CD; ref [17]; cited from earlier work.
Series [2] concerns polyU. Conditions: ref [17]; cited from earlier work. An excerpt: The basis for the work presented here is the construct Precursor-Arg (PA).[17] PA consists of a single helix-hairpin-helix (HhH) motif and is constructed from an alphabet of only 10 amino acid types. The sequence of PA (Table 1) is biased specifically for those amino acids that were thought to be present on the early earth[35] and is the result of an ancestor sequence reconstruction of the (HhH)2-Fold protein family followed by an experimental deconstruction.[17] PA has two positively charged patches—located at the N-terminus of the first α-helix (residues 1–4, RIRR) and on the second α-helix ... || Using the ColabFold implementation of AlphaFold2,[33] a model of a putative PA dimer was predicted (Figure 1A). […] The dimerization potential of PA was further confirmed by MD simulations (Figure S6). […] This option relies on the dimer having conformations where positive and negative charges are separated, allowing for efficient bidentate binding to the polyU.

Series [3] has as its system polyU. The series can be described thus: Coacervate (droplet) formation with polyU, optical microscopy. In kind it is physicochemical. The protocol:
Optical microscopy images of phase-separated samples were taken at the de Picciotto Cancer Cell Observatory Life Sciences Core Facilities (Weizmann Institute of Science) using a 100× objective (oil immersion) on a Leica DMI8 microscope with differential interface contrast. We used 1–2 μL of the sample to make a small drop in an imaging chamber produced by attaching a coverslip to a clean glass slide using a thin strip of double-sided tape (AJ Sign World). Images were processed using the software package Fiji (NIH).
Lyophilized, spin-labeled peptides were dissolved in Milli-Q water and centrifuged at 4000 rpm for 10 min to remove insoluble aggregates. The soluble fractions were used to prepare stock solutions of 250–500 μM peptide. Labeled peptide concentrations were determined by comparing the area under the curve of the EPR signal against that of standard solutions of 10–285 μM TEMPO. For the EPR measurements in D2O, 200 μL of the stock solution was lyophilized and re-dissolved in D2O. The concentration of the unlabeled peptide stock solutions was determined using the bicinchoninic acid assay (Thermo Fisher Scientific) and ranged from 0.8 to 1.2 mM peptide. A stock solution of 500 mM MES, pH 5.6 was used to adjust all samples to a final concentration of 50 mM MES, pH 5.6. Aliquots of 10 mg/mL polyuridylic acid (polyU; Sigma Aldrich) were prepared in Milli-Q water and diluted as necessary. For CW-EPR measurements, a quartz capillary of 0.6 mm i.d. and 0.84 mm o.d. was filled with 7–8 μL of the sample and sealed with Critoseal (Fisherbrand, Fisher Scientific) at one end. A single capillary was placed in an X-band EPR tube of 2 mm i.d. and 2.4 mm o.d. for measurements, except for spin concentration below 50 μM, where two capillaries were used.
Each sample was freshly prepared and the time to collect […] CW-EPR data was 30–40 min.

RVRRSEIPLGIELEAGTLRLARRPEIRVA [SA]: the α-helical propensity entry in series [1] is given as “lower α-helical propensity than PA”. Further, the “coacervate formation or precipitation with polyU (earlier study)” value in series [2] is “precipitates with polyU rather than forms coacervates”. Besides, the “coacervate formation with polyU” value is “did not form coacervates with polyU” in series [3] (concentrations not given) and “did not form coacervates but rather aggregates” in series [3] (unlabeled peptide, 1 mg/mL polyU, aggregation also previously reported, ref [17]).
